According to paper PMC10167629, “Computer-aided design of a cyclic di-AMP synthesizing enzyme CdaA inhibitor” (microLife, 2023):

Tests used:
Lm CdaA (∆100CdaA) [1] = biological target: T1, Lm CdaA (∆100CdaA) (Listeria monocytogenes, UniProt Q8Y5E4); test: crystal structure by soaking; format: binding; conditions: active site, chain A
T1 construct: gene dacA; DAC domain, lacks transmembrane domain and linker (first 100 residues deleted); N-terminal GST tag cut with PreScission protease; plasmid pGEXpBP33, E. coli BL21(DE3); residues to at least 268 mentioned (96-104 and 256-268 disordered); non-catalytic back-to-back dimer in crystal
T1 sequence (Q8Y5E4 101-273): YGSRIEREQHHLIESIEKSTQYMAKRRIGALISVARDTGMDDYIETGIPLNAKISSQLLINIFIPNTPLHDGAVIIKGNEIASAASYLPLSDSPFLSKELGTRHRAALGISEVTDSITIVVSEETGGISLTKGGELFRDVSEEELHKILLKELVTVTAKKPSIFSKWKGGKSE

Lm CdaA (∆100CdaA) [2] = biological target: T1, Lm CdaA (∆100CdaA); test: ITC, […] binding model

Structure (SMILES) | crystal structure by soaking (Lm CdaA (∆100CdaA) [1]) | Kd (Lm CdaA (∆100CdaA) [2])
Nc1ncnc2c1ncn2[C@@H]1O[C@H](CO)[C@@H](O)[C@H]1O [adenosine] | we have determined crystal structures of CdaA complexes with adenine (Fig. 3B), adenosine (Fig. 3C) | 
CC(=O)Nc1nc(C)c(-c2csc(N)n2)s1 [compound 7] |  | 16.3 ± 2.5 µM
